Data reported in patent US20250074910A1, “MENIN INHIBITOR AND USE THEREOF” (HITGEN INC., priority 2021, published 2025).
pIC50: −log10 of the molar value. Where “and” joins values, the source holds several entries; their conditions need not be identical. Identical values can stand only once. Like-named read-outs stand apart in the source and are kept apart here.

Key:
[1] = biological target: Menin/MLL-4-43 peptide interaction (Homo sapiens (Human), UniProt O00255); assay: Menin-MLL interaction inhibitory activity assay (fluorescence polarization competition); type: binding; conditions: FITC-MLL4-43-peptide, Menin recombinant protein
Sequence of Menin/MLL-4-43 peptide interaction (O00255 whole entry, species assumed): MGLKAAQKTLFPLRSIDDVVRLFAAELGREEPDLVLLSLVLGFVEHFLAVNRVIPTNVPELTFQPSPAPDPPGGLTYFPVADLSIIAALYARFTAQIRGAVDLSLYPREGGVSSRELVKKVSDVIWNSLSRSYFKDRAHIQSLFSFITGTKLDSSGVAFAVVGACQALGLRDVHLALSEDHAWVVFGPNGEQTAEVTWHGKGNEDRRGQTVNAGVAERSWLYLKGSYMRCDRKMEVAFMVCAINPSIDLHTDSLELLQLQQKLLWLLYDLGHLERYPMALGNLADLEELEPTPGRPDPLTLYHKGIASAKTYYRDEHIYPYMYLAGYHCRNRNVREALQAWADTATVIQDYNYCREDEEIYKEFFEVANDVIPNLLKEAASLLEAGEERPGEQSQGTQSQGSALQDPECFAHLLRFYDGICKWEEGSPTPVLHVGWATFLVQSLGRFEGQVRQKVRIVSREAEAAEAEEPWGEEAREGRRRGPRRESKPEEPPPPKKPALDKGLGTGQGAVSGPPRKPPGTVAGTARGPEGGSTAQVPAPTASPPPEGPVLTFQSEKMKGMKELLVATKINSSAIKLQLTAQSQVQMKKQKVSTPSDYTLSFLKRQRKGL
In short: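 Menin (8 nM solution) was preincubated 15 min with compound, then FITC-MLL4-43 peptide (10 nM solution) was added and shaken for 60 min at 25 °C. The buffer was 50 mM Tris pH 7.5, 50 mM NaCl, 1 mM DTT. IC50 was derived from fluorescence polarization read at 485/520 nm.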

MV4-11 = assay: Cell proliferation inhibition (CellTiter-Glo), MV4-11; type: cell-based; conditions: Homo sapiens, MV4-11, 72 h, MV4-11 cells
In short: (§1)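 Seed 5,000-20,000 cells/well; add compound to final 1 nM-10 μM; culture 72-168 h at 37° C, 5% CO2; add equal volume CellTiter-Glo, 10 min RT; read luminescence; fit IC50.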

MOLM-13 = assay: Cell proliferation inhibition (CellTiter-Glo), MOLM-13; type: cell-based; conditions: Homo sapiens, MOLM-13, 168 h, MOLM-13 cells
In short: as §1

OCI-AML3 = assay: Cell proliferation inhibition (CellTiter-Glo), OCI-AML3 (NPM1 mutation); type: cell-based; conditions: Homo sapiens, OCI-AML-3, 168 h, OCI-AML3 cells
In short: as §1

[2] = Stability in mouse liver microsomes; type: in vitro ADME; conditions: 1.00 μM compound, NADPH; for half-life at 1 μM: liver microsomes, pH 7.4, 0.5 mg/mL microsomal protein, read-out: Half life T1/2, mouse liver microsomes
Description: (§2) Test Example 3: Test of Stability of Compounds in Liver Microsome
(§3) Test purpose: To determine the stability of some of the compounds of the present disclosure in mouse, dog and human liver microsomes by LC-MS/MS method.
(§4) Test materials: The test drugs were in-house prepared example compounds of the present disclosure; the positive reference compound SNDX-5613 was prepared by the method of Example 253 in patent WO2017214367; the control compound 1 was prepared by the method of Example 64 in WO2017214367; liver microsomes were purchased from CORNING.
(§5) The total volume of each incubation system was approximately 45 μL, and the medium was 100 mM phosphate buffer (PBS, pH 7.4), including liver microsomal protein at a final concentration of 0.5 mg/mL, 1.00 μM compound and 2.00 mM NADPH, and the organic phase content was <1%. Incubation was performed in a 37° C. incubator, and 135 μL of ice-cold acetonitrile was added after 0, 5, 15, 30 and 60 min of reaction to terminate the reaction. The positive control group was incubated with 1.00 μM Ketanserin, 0.5 mg/mL liver microsomal protein and 2.00 mM NADPH in a 37° C. incubator for 0, 5, 15, 30 and 60 min respectively, and then 135 μL of ice-cold acetonitrile was added to terminate the reaction. The 96-well plates were shaken at 600 rpm for 10 min and then centrifuged at 4700 rpm at 4° C. for 15 min. 80 μL of supernatant was mixed with 320 μL of pure water, and the remaining amount of the compound was detected by LC-MS/MS method. The in vitro half life (T½) and intrinsic clearance (CLint) were calculated according to the following formula:
(§6) Intrinsic clearance (Clint)=(0.693/T1/2)×(1/liver microsome concentration)×conversion factor. k is the linear regression slope of the remaining percentage of the ln compound-incubation time.

[3] = Stability in human liver microsomes; type: in vitro ADME; conditions: 0.5 mg/mL microsomal protein, 1.00 μM compound, NADPH; for half-life at 1 μM: human, liver microsomes, pH 7.4, Human, read-out: Half life T1/2, human liver microsomes
Description: as §2, §3, §4, §5, §6

[4] = Stability in dog liver microsomes; type: in vitro ADME; conditions: 0.5 mg/mL microsomal protein, 1.00 μM compound, NADPH; for half-life at 1 μM: dog, liver microsomes, pH 7.4, Dog, read-out: Half life T1/2, dog liver microsomes
Description: as §2, §3, §4, §5, §6

[5] = biological target: T1, hERG potassium ion channel (Homo sapiens (Human), UniProt Q12809); assay: hERG potassium channel effect test (manual patch clamp, HEK293 cells overexpressing hERG); type: cell-based; conditions: for inhibition at 30 μM: human, HEK293 cells overexpressing hERG potassium ion channels, read-out: Average inhibition rate of hERG current at the highest compound tested concentration; for pIC50: manual patch clamp, highest test concentration 30 μM
T1 sequence (Q12809 whole entry): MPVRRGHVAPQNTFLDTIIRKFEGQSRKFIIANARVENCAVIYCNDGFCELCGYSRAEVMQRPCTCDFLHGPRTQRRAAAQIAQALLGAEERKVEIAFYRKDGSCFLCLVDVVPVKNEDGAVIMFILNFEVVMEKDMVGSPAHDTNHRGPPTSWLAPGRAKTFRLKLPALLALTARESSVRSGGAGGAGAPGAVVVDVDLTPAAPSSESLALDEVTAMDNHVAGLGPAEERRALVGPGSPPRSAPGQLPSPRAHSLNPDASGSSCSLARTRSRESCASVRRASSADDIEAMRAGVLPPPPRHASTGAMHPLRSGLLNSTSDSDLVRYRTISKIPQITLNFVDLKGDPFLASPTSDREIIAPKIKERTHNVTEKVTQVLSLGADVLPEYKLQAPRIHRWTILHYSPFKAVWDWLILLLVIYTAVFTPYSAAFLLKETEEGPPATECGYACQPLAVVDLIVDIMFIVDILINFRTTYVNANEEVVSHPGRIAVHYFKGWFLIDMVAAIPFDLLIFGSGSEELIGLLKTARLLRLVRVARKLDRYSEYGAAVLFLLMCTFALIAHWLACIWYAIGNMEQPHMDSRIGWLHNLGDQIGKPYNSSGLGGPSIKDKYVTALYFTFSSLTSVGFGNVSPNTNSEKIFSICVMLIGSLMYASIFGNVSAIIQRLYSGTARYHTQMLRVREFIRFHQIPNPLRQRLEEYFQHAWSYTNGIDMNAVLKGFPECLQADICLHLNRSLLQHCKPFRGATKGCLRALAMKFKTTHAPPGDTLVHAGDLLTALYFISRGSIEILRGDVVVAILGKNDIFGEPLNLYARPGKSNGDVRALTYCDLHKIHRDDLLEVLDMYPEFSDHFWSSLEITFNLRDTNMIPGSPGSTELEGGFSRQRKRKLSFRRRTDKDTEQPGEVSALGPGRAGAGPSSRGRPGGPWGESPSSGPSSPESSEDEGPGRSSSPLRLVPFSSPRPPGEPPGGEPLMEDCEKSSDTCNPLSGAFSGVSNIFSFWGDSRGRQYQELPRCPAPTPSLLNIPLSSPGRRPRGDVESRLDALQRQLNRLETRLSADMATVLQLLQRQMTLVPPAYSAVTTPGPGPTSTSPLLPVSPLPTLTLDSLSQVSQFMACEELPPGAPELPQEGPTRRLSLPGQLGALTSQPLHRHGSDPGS
Description: Test Example 6: hERG Potassium Channel Effect Test
The hERG inhibition test was performed on some of the example compounds of the present disclosure using the manual electrophysiological patch clamp method. The cell line was derived from HEK293 cells that overexpressed hERG potassium ion channels. The specific experimental protocol was developed by PharmaCore Labs with reference to literature published in peer-reviewed journals and was performed by PharmaCore Labs in accordance with its standard experimental operating procedures. The highest test concentration was 30 μM.

[6] = Pharmacokinetics test in mouse; type: in vivo, ICR mice; conditions: mice, p.o. 10 mg/kg; for F, %: 1 mg/kg for intravenous injection
Text: Test Example 4. In Vivo Pharmacokinetic Study
Test purpose: To determine the pharmacokinetic properties of some of the example compounds of the present disclosure in mice, rats and dogs after single intravenous injection (i.v.) and oral gavage (i.g.) administration by LC-MS/MS method.
Research methods: An appropriate amount of compound was weighed and prepared into a transparent clear solution of a certain concentration using 0.9% sodium chloride injection and 1.5 equivalents of 1M HCl aqueous solution based on the molar number of the compound. After SPF male ICR mice, SPF male SD rats, and male beagle dogs were fasted overnight, the test compound solution was given by intravenous injection and oral gavage at the corresponding dose. Anticoagulated whole blood of the test animals was collected at 5 min, 15 min, 30 min, 1 h, 2 h, 4 h, 8 h, and 24 h after administration, and plasma was separated. Plasma samples at each time point were detected by LC-MS/MS, and the plasma concentration of the compound was determined by the standard curve correction method. Phoenix WinNonlin 5.2 non-compartmental model was used to calculate the pharmacokinetic parameters of terminal elimination half-life (t½), blood peak concentration (Cmax), area under the concentration-time curve (AUC), clearance (CL), and bioavailability (F %), which was directly obtained from the serum concentration results. Blood drug concentration and pharmacokinetic parameters are expressed as mean±standard deviation (X±SD). The specific test protocols for each species are as follows.
Pharmacokinetics Test in Mouse
Test animals: SPF male ICR mice, weighing 25-30 g, 12 mice/compound, purchased from Chengdu Dossy Experimental Animal Co., Ltd.
Test design: On the day of the test, ICR mice were randomly divided into groups according to body weight, fasted but with free water for 12-14 h one day before administration, and fed 2 h after administration.
Preparation of test compound solution: The concentration of the test compound for oral gavage was 1 mg/mL. An appropriate amount of compound was weighed and prepared into a 1 mg/mL transparent clear solution using 0.9% sodium chloride injection and 1.5 equivalents of 1M HCl aqueous solution. The concentration of the test compound for intravenous injection was 0.2 mg/mL. The 1 mg/mL transparent clear solution was diluted to a concentration of 0.2 mg/mL using 0.9% sodium chloride injection. The volume of 1 M HCl solution added was calculated as: volume of 1 M HCl solution added […]=weighed amount of compound (mg)/molecular weight×1.5×1000. The amount added during preparation must not exceed the calculated value.
The test substance was administered as follows: intravenous injection: 1 mg/kg of dose, 5 mL/kg of volume, 6 mice; oral gavage: 10 mg/kg of dose, 10 mL/kg of volume, 6 mice.
Sample collection: Blood (40-50 μl) was collected in anticoagulant tubes sprayed with EDTA-K2 through the orbital venous plexus at 5 min, 15 min, 30 min, 1 h, 2 h, 4 h, 8 h, and 24 h after administration, and centrifuged at 10,000 rpm for 20 min within 1 h (the blood was saved on wet ice before and after centrifugation). The supernatant, which was plasma, was collected and frozen in a refrigerator at −20° C. or below for LC-MS/MS analysis of Full PK of male ICR mice (2 mice per group, 4 blood collection time points per mouse, crossover).

[7] = biological target: T1, hERG potassium ion channel; conditions: reported value of the positive reference compound; cited from earlier work
[8] = male, ICR, mouse, plasma, po, 10 mg/kg

SMILES | pIC50 [1] | GI50 (MV4-11) [nM] | GI50 (MOLM-13) [nM] | GI50 (OCI-AML3) [nM] | half-life at 1 μM [2] [h] | half-life at 1 μM [3] [h] | half-life at 1 μM [4] [h] | inhibition at 30 μM [5] [%] | pIC50 [5] | Half life T1/2, mouse liver microsomes ([2]; 0.5 mg/mL microsomal protein) [h] | Half life T1/2, human liver microsomes ([3]; Human) [h] | Half life T1/2, dog liver microsomes ([4]; Dog) [h] | AUClast [6] [ng·h/mL] | Cmax [6] [ng/mL] | T1/2 [6] [h] | F, % [6] | pIC50 [7] | AUC(0-t) [6, 8] [ng·h/mL] | half-life [6, 8] [h] | Cmax ([6]; male, ICR, mouse, plasma, po, 10 mg/kg, read-out: Cmax) [ng/mL]
CCN(C(=O)c1cc(F)ccc1Oc1nncnc1N1CC2(CCN(C[C@H]3CC[C@]4(CC3)C[C@H](COC)C(=O)N4)CC2)C1)C(C)C [Example 37-1] | 7.89 | 88.3 | 354 | 183 | > 2 | > 2 | > 2 | 13.2 | < 4.52 | – | – | – | – | – | – | – | – | – | – | –
CCN(C(=O)c1cc(F)ccc1Oc1cncnc1N1CC2(CCN(C[C@H]3CC[C@H](NS(=O)(=O)CC)CC3)CC2)C1)C(C)C [SNDX-5613, reference compound] | – | – | – | – | – | – | – | – | – | 1.178 | 0.1998 | 1.05 | 2483 | 1296 | 1.53 | 88% | 4.82 to 5.30 | – | – | –
CC(C)N(C(=O)c1cc(F)ccc1Oc1cncnc1N1CC2(CCN(C[C@H]3CC[C@@]4(CCC(=O)N4)CC3)CC2)C1)C(C)C [Example 5] | 7.47 | 47.8 | 46.5 | 242 | – | – | – | 33.1 | < 4.52 | – | – | – | 8285 | 2535 | 1.91 | 84% and 72% | – | 7700 | 1.37 | 2620
CCN(C(=O)c1cc(F)ccc1Oc1nncnc1N1CC2(CCN(C[C@H]3CC[C@]4(CC3)CC(COC)(COC)C(=O)N4)CC2)C1)C(C)C [Example 19] | – | 13.2 | 33.1 | 28.5 | > 2 | 1.35 | > 2 | 12.8 | < 4.52 | – | – | – | – | – | – | – | – | – | – | –
